Here are results for 2 molecules from patent US8846918B2, “Compounds useful as inhibitors of ATR kinase” (Vertex Pharmaceuticals Incorporated, priority 2011, dated 2014).

The target of the assay is T1, ATR kinase (Homo sapiens, UniProt Q13535).
T1 construct: Assays were carried out at 25° C. in the presence of 5 nM full-length ATR
Briefly: ATR Inhibition Assay (radioactive-phosphate incorporation). Conditions: Ki(app); 5 nM full-length ATR, 10 μM ATP, 800 μM target peptide, 25° C. Format: biochemical. How it is done: Compounds were screened for their ability to inhibit ATR kinase using a radioactive-phosphate incorporation assay. Assays were carried out in a mixture of 50 mM Tris/HCl (pH 7.5), 10 mM MgCl2 and 1 mM DTT. Final substrate concentrations were 10 μM [γ-33P]ATP (3 mCi 33P ATP/mmol ATP, Perkin Elmer) and 800 μM target peptide (ASELPASQPQPFSAKKK).
Assays were carried out at 25° C. in the presence of 5 nM full-length ATR. An assay stock buffer solution was prepared containing all of the reagents listed above, with the exception of ATP and the test compound of interest. 13.5 μL of the stock solution was placed in a 96 well plate followed by addition of 2 μL of DMSO stock containing serial dilutions of the test compound (typically starting from a final concentration of 15 μM with 3-fold serial dilutions) in duplicate (final DMSO concentration 7%). The plate was pre-incubated for 10 minutes at 25° C. and the reaction initiated by addition of 15 μL [γ-33P]ATP (final concentration 10 μM).
The reaction was stopped after […] by the addition of 300 μL 0.1M phosphoric acid containing 2 mM ATP. […]
After removing mean background values for all of the data points, Ki(app) data were calculated from non-linear regression analysis of the initial rate data using the Prism software package (GraphPad Prism version 3.0cx for Macintosh, GraphPad Software, San Diego Calif., USA).

T1 sequence (Q13535 whole entry): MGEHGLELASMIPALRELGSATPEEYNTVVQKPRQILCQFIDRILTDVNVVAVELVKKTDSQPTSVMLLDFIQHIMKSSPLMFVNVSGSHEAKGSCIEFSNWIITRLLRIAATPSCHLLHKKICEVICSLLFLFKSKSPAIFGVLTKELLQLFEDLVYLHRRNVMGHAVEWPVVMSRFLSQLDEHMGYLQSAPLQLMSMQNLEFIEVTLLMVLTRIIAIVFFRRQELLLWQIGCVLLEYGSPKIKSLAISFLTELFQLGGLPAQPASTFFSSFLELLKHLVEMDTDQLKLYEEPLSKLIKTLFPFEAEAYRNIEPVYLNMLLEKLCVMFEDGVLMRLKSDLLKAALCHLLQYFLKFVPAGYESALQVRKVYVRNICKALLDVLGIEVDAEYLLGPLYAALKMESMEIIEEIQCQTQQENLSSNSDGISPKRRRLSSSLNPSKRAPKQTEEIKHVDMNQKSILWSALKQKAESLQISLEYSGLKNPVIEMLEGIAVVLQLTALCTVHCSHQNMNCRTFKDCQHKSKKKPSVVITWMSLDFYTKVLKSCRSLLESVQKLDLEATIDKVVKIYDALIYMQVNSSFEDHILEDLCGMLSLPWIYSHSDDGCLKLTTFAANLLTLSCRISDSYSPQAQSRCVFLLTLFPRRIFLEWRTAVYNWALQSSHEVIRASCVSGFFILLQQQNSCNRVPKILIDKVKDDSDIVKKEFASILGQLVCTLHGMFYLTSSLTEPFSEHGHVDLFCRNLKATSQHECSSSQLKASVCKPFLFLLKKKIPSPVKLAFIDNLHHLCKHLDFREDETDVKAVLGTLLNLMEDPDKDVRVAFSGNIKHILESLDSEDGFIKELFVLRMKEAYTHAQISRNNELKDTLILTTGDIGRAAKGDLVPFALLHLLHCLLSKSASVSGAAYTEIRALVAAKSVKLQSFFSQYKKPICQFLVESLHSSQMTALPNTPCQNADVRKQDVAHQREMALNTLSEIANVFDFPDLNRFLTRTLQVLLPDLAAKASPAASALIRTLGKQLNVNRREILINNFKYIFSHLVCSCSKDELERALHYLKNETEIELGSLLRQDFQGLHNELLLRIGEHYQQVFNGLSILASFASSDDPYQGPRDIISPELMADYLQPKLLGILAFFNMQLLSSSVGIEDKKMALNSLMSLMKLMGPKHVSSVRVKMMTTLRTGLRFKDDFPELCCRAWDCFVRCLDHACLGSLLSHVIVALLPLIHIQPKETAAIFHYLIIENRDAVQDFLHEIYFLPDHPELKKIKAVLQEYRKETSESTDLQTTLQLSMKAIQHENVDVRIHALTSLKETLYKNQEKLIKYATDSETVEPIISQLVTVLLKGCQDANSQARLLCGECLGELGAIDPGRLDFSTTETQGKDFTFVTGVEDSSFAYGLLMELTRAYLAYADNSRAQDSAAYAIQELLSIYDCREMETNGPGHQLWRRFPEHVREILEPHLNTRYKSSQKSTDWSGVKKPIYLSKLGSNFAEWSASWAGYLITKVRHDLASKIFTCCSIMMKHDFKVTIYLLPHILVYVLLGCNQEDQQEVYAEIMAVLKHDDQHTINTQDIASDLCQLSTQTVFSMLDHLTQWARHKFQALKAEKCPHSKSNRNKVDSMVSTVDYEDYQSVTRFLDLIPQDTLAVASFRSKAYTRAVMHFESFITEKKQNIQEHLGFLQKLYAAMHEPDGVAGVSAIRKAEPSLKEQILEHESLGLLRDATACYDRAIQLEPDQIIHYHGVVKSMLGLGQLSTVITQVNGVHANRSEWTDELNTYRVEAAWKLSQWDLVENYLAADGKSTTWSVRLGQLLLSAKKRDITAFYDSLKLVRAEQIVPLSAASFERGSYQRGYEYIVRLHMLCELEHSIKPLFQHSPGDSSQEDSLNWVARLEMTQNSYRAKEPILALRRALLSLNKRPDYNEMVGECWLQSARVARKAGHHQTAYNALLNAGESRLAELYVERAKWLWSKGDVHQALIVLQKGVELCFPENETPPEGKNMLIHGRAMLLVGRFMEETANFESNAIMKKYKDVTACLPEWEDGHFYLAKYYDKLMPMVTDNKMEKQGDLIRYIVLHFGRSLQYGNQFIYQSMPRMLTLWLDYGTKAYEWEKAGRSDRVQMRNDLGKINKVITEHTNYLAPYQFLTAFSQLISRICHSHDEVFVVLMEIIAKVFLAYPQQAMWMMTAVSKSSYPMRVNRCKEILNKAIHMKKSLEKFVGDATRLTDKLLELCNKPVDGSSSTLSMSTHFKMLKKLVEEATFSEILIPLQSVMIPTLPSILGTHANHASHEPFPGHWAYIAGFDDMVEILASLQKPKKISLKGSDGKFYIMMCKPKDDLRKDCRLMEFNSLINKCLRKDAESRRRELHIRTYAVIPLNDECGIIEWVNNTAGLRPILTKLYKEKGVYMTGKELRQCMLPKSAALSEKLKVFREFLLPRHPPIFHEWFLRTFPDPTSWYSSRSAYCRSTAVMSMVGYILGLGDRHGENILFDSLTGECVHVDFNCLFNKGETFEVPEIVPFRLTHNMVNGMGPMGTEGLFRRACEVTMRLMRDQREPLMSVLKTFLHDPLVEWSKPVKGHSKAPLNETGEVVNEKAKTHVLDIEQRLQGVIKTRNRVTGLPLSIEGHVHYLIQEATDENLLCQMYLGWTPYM

As for “2-(4-(5-amino-6-(4-iodo-3-(4-(((tetrahydro-2H-pyran-4-yl)amino)methyl)phenyl)isoxazol-5-yl)pyrazin-2-yl)pyridin-2-yl)-2-methylpropanenitrile [Compound I-2]”, the Ki amounted to 90 nM.

With `CC(C)S(=O)(=O)c1ccc(-c2cnc(N)c(-c3onc(-c4ccc(CNC5CCOCC5)cc4)c3I)n2)cc1` [Compound I-1, 3-(4-iodo-3-(4-(((tetrahydro-2H-pyran-4-yl)amino)methyl)phenyl)isoxazol-5-yl)-5-(4-(isopropylsulfonyl)phenyl)pyrazin-2-amine], the Ki stood at 16 nM.
